The record followed here is ChEMBL document CHEMBL5126503, “Renieramycin-type alkaloids from marine-derived organisms: Synthetic chemistry, biological activity and structural modification” (Eur J Med Chem, 2021).

Converted amounts (≈) assume the structure as drawn. Where a name gives a salt, the structure may show the parent alone.

The subject of series [1] is A549. As to the kind of experiment: Cytotoxicity against human A549 cells assessed as cell growth inhibition. The series is classed as functional, cell-based.
Series [2] relates to HCT-8. The experiment in a line: Antiproliferative activity against human HCT-8 cells assessed as cell growth inhibition. The series is classed as functional, cell-based.
In series [3] the test system is MCF7. As to the kind of experiment: Antiproliferative activity against human MCF7 cells assessed as cell growth inhibition. The series is classed as functional, cell-based.
For another series, the system named is A2780. The experiment in a line: Antiproliferative activity against human A2780 cells assessed as cell growth inhibition. The series is classed as functional, cell-based.
A further series concerns KETR3. The experiment in a line: Antiproliferative activity against human KETR3 cells assessed as cell growth inhibition. Format: functional, cell-based.
A further series deals with Bel-7402. The experiment in a line: Antiproliferative activity against human Bel-7402 cells assessed as cell growth inhibition. Format: functional, cell-based.
Series [4] concerns BGC-823. The experiment in a line: Antiproliferative activity against human BGC-823 cells assessed as cell growth inhibition. The series is classed as functional, cell-based.
The nature of series [5]: Antiproliferative activity against human HELF cells assessed as cell growth inhibition. The series is classed as toxicity, cell-based.
Series [6] deals with HeLa. The experiment in a line: Antiproliferative activity against human HeLa cells assessed as cell growth inhibition. The series is classed as functional, cell-based.
The subject of series [7] is KB. The experiment in a line: Antiproliferative activity against human KB cells assessed as cell growth inhibition. The series is classed as functional, cell-based.
Series [8] deals with HCT-116. The experiment in a line: Cytotoxicity against human HCT-116 cells assessed as cell growth inhibition. The series is classed as functional, cell-based.
Series [9] has as its system QG-56. As to the kind of experiment: Cytotoxicity against human QG-56 cells assessed as cell growth inhibition. Format: functional, cell-based.
The subject of a further series is NCI-H460. As to the kind of experiment: Cytotoxicity against human NCI-H460 cells assessed as cell growth inhibition. The series is classed as functional, cell-based.
For a further series, the system named is DLD-1. As to the kind of experiment: Cytotoxicity against human DLD-1 cells assessed as cell growth inhibition. The series is classed as functional, cell-based.
In another series the test system is P388. As to the kind of experiment: Cytotoxicity against mouse P388 cells assessed as cell growth inhibition. Format: functional, cell-based.
Series [10] is described as follows: Cytotoxicity against mouse NIH3T3 cells assessed as cell growth inhibition at 50 ng/ml. The series is classed as toxicity, cell-based.
The next series has as its system Melanoma cell line. As to the kind of experiment: Cytotoxicity against human Melanoma cell line assessed as cell growth inhibition. The series is classed as functional, cell-based.
In another series the test system is HT-29. As to the kind of experiment: Cytotoxicity against human HT-29 cells assessed as cell growth inhibition. The series is classed as functional, cell-based.
The test system of series [11] is HCT-116. The experiment in a line: Cytotoxicity against human HCT-116 cells assessed as cell growth inhibition incubated for 4 days by Cell counting kit-8 assay. Particulars: HCT-116, 96 h. Format: functional, cell-based.
For series [12], the system named is QG-56. As to the kind of experiment: Cytotoxicity against human QG-56 cells assessed as cell growth inhibition incubated for 4 days by Cell counting kit-8 assay. Particulars: QG-56, 96 h. Format: functional, cell-based.
The subject of series [13] is DU-145. The experiment in a line: Cytotoxicity against human DU-145 cells assessed as cell growth inhibition incubated for 4 days by Cell counting kit-8 assay. Format: functional, cell-based. The note with it: DU-145, 96 h.
Series [14] has as its system QG-56. As to the kind of experiment: Growth inhibition of human QG-56 cells. Format: functional.
The test system of series [15] is HCT-116. The experiment in a line: Growth inhibition of human HCT-116 cells. The series is classed as functional.
Series [16] has as its system DU-145. The experiment in a line: Growth inhibition of human DU-145 cells. Format: functional.
Series [17] deals with BGC-823. As to the kind of experiment: Antiproliferative activity against human BGC-823 cells assessed as cell growth inhibition by MTT assay. The series is classed as functional, cell-based. In general terms: Tetrazolium dyes change colour on reduction, which living cells bring about.
The subject of series [18] is A549. The experiment in a line: Antiproliferative activity against human A549 cells assessed as cell growth inhibition by MTT assay. The series is classed as functional, cell-based.
In series [19] the test system is KB. The experiment in a line: Antiproliferative activity against human KB cells assessed as cell growth inhibition by MTT assay. Format: functional, cell-based.
Series [20] concerns HCT-8. As to the kind of experiment: Antiproliferative activity against human HCT-8 cells assessed as cell growth inhibition by MTT assay. The series is classed as functional, cell-based.
Series [21] has as its system HeLa. The experiment in a line: Antiproliferative activity against human HeLa cells assessed as cell growth inhibition by MTT assay. Format: functional, cell-based.
A short description of series [22]: Cytotoxicity against human HEK293 cells assessed as cell growth inhibition. The series is classed as toxicity, cell-based.
For a further series, the system named is Malme-3M. The experiment in a line: Growth inhibition of human Malme-3M cells. The series is classed as functional.
The subject of series [23] is Streptococcus pneumoniae. The experiment in a line: Antimicrobial activity against Streptococcus pneumoniae assessed as reduction in microbial growth by disk diffusion assay. Format: functional. (A growth-free zone around the sample is the usual read-out of agar diffusion tests.)
Another series has as its system Bacillus subtilis. As to the kind of experiment: Antimicrobial activity against Bacillus subtilis assessed as reduction in microbial growth by disk diffusion assay. Format: functional.
For series [24], the system named is Streptococcus pneumoniae. As to the kind of experiment: Antimicrobial activity against Penicillin resistant Streptococcus pneumoniae assessed as reduction in microbial growth by disk diffusion assay. Format: functional.
Series [25] deals with Neisseria gonorrhoeae. The experiment in a line: Antimicrobial activity against Neisseria gonorrhoeae assessed as reduction in microbial growth by disk diffusion assay. The series is classed as functional.
Series [26] has as its system Neisseria gonorrhoeae. As to the kind of experiment: Antimicrobial activity against Penicillin resistant Neisseria gonorrhoeae assessed as reduction in microbial growth by disk diffusion assay. Format: functional.
Series [27] deals with HCT-116. As to the kind of experiment: Antiproliferative activity against human HCT-116 cells assessed as cell growth inhibition by MTT colorimetric assay. The series is classed as functional, cell-based.
For a further series, the system named is MDA-MB-435. The experiment in a line: Antiproliferative activity against human MDA-MB-435 cells assessed as cell growth inhibition by MTT colorimetric assay. Format: functional, cell-based.
The nature of series [28]: Cytotoxicity against human U373 MG cells assessed as cell growth inhibition incubated for 4 to 72 hrs by MTT assay. The series is classed as functional, cell-based, U-373MG ATCC.
The test system of another series is T47D. As to the kind of experiment: Cytotoxicity against human T47D cells assessed as cell growth inhibition. The series is classed as functional, cell-based.
For series [29], the system named is MCF7. As to the kind of experiment: Cytotoxicity against human MCF7 cells assessed as cell growth inhibition incubated for 72 hrs by MTT assay. The series is classed as functional, cell-based. The note with it: MCF7, 72 h.
The next series deals with ASPC1. As to the kind of experiment: Cytotoxicity against human ASPC1 cells assessed as cell growth inhibition. Format: functional, cell-based.

Consider `COC1=C(C)C(=O)C2=C(C1=O)[C@@H]1[C@@H]3CC4=C(C(=O)C(OC)=C(C)C4=O)[C@H](COC(=O)C(=O)CNC(=O)c4ccccc4)N3[C@@H](C#N)[C@H](C2)N1C`, for which the IC50 in the series on A549 [1], in the series with HCT-8 [2], in the series on MCF7 [3], in the series with A2780, in the series with KETR3 and in the series on Bel-7402 was 2.12 nM each time. The IC50 (in the series on BGC-823 [4]; in series [5]; in the series on HeLa [6]; in the series with KB [7]) was 2.12 nM in each case.

As to `C/C=C(/C)C(=O)OC[C@H]1C2=C(C[C@H]3[C@H]4c5c(O)c(OC)c(C)c(O)c5[C@@H](O)[C@@H]([C@H](C#N)N13)N4C)C(=O)C(C)=C(OC)C2=O`, the IC50 with HCT-116 [8] was determined as 5.6 nM; in the series on QG-56 [9] it was 11 nM; with NCI-H460 it was 6.7 nM; in the series on DLD-1, 5.7 nM.

For the compound `COC1=C(C)C(=O)C2=C(C1=O)[C@H]1CN(C)[C@@H](C#N)[C@H](C2)N1C`, the values for the 50% inhibitory concentration (IC50) in the series with HCT-116 [8] and with QG-56 [9] were 84 nM and 240 nM, respectively.

Regarding `COC1=C(C)C(=O)C2=C(C1=O)[C@@H]1[C@@H]3CC4=C(C(=O)C(OC)=C(C)C4=O)[C@H](COC(C)=O)N3[C@@H](O)[C@H](C2)N1C`, the IC50 in the series on P388 amounted to 0.0125 µg/mL (≈ 0.0237 µM); with A549 [1] it was 0.0125 µg/mL; with Melanoma cell line, 0.0125 µg/mL (≈ 0.0237 µM); with HT-29, 0.0125 µg/mL (≈ 0.0237 µM); in the series on HCT-116 [11], 0.57 nM; in the series on QG-56 [12] it was 0.76 nM. The IC50 with DU-145 [13] amounted to 0.49 nM. In series [10], the inhibition at 50 ng/ml turned out to be 100%.

For `C/C=C(/C)C(=O)OC[C@H]1C2=C(C[C@H]3[C@H]4C5=C(C[C@@H](C(=O)N13)N4C)C(=O)C(C)=C(OC)C5=O)C(=O)C(C)=C(OC)C2=O` [(-)-RENIERAMYCIN G], the GI50 in the series with QG-56 [14] worked out at 1300 nM; in the series with HCT-116 [15], 1100 nM; with DU-145 [16] it was 1300 nM. Further, the IC50 was determined as 3500 nM with BGC-823 [17]; 3500 nM with A549 [18]; 3500 nM in the series on KB [19]; 3500 nM with HCT-8 [20]; 3800 nM in the series on HeLa [21].

Turning to `CC(C)C[C@H](NC(=O)[C@H](Cc1ccccc1)NC(=O)c1cnccn1)B(O)O` [BORTEZOMIB], the IC50 in series [22] came to 14000 nM.

`C/C=C(/C)C(=O)OC[C@H]1C2=C(C=C3[C@H]4c5c(O)c(OC)c(C)c(O)c5C(=O)[C@@H](C(=O)N31)N4C)C(=O)C(C)=C(OC)C2=O` [CRIBROSTATIN 5] yielded a GI50 with Malme-3M of 390 nM. Besides, the MIC was 6.25 µg with Streptococcus pneumoniae [23]; 12.5 µg in the series on Bacillus subtilis; 50 µg with Streptococcus pneumoniae [24]; 6.25 µg with Neisseria gonorrhoeae [25]; 1.56 µg in the series on Neisseria gonorrhoeae [26].

In the case of `COC1=C(C)C(=O)C2=C(C1=O)[C@@H]1[C@@H]3CC4=C(C(=O)C(OC)=C(C)C4=O)[C@H](COC(C)=O)N3[C@@H](C#N)[C@H](C2)N1C` [CYANOJORUMYCIN], the IC50 with HCT-116 [8] was below 0.38 nM; in the series on QG-56 [9] it was 0.68 nM.

Take `COc1cccc2c1C(=O)c1c(O)c3c(c(O)c1C2=O)C[C@@](O)(C(=O)CO)C[C@@H]3O[C@H]1C[C@H](N)[C@H](O)[C@H](C)O1` [DOXORUBICIN HYDROCHLORIDE]: the IC50 in the series on A549 [1] was 310 nM.

Consider `CCC(=O)OC[C@H]1C2=C(C[C@H]3[C@H]4C5=C(C[C@@H]([C@H](C#N)N13)N4C)C(=O)C(C)=C(OC)C5=O)C(=O)C(C)=C(OC)C2=O` [JORUNNAMYCIN C], for which the IC50 in the series on HCT-116 [27] was found to be 27.3 nM; with MDA-MB-435, 16.3 nM; in the series with HCT-116 [11] it was 1.5 nM; with QG-56 [12], 2.8 nM; in the series on DU-145 [13], 0.32 nM.

In the case of `C/C=C(/C)C(=O)OC[C@H]1C2=C(C[C@H]3[C@H]4C5=C(C[C@@H]([C@H](C#N)N13)N4C)C(=O)C(C)=C(OC)C5=O)C(=O)C(C)=C(OC)C2=O` [RENIERAMYCIN M], the GI50 in the series on DU-145 [16] was 1700 nM. The IC50 is 3.1 nM in series [28]; 0.84 nM with T47D; 16.4 nM in the series with HCT-116 [27]; 6.3 nM in the series on MDA-MB-435; 6 nM in the series on MCF7 [29]; 20 nM in the series on ASPC1. Moreover, the IC50 with QG-56 [12] stood at 11 nM.

A word on the IC50: it is the midpoint of a concentration-inhibition curve. As a reminder, the inhibition is the drop in the measured response relative to a control, in per cent. One may read the GI50 as the concentration giving 50% growth inhibition. Low values mean greater sensitivity of the cells, high ones lower sensitivity of the cells.
